Results published in patent publication US20190345536A1, “DETECTION METHOD FOR CHROMOSOMAL ABNORMALITIES AND METHOD FOR EVALUATING INDUCIBILITY” (Sumitomo Chemical Company, Limited, priority 2016, published 2019).
Where two headings read alike, the source gives them in different places.

Key:
[1] = system: human iPS cell-derived T lymphocyte
[2] = system: human iPS cell-derived T lymphocyte; assay: In vitro chromosomal aberration test using human iPS cell-derived T lymphocyte (Example 5); format: cell-based
Method: As human iPS cell-derived T lymphocyte, redifferentiated T lymphocyte derived from human iPS cell line “2” described in Example 1(1) was used. […] A test substance was used at the treatment dose (final concentration in medium) described in Table 7. For the treatment, a test substance was dissolved in PBS at a 100-fold concentration of the final concentration in the medium for addition at 1% (v/v). Treatment with a test substance was performed according to the process described in (4). […] After about 14 hr of culture, the total amount of the cell suspension was recovered by pipetting. The cell suspension was diluted with Rh-5 medium to a cell density of 2.0×10^5 cells/mL and reseeded in a 12 well plate not coated with the antibody at 2 mL per well, and culture was continued. Treatments with MMC, EMS and MAN were performed according to the method described below. That is, after about 24 hr from the reseeding in (3), a solution (20 μL) obtained by dissolving a test substance in PBS at a 100-fold concentration of the final concentration described in Table 5 was further added and the cells were treated for 27 hr. Different from a test substance treatment group, PBS (20 μL) was added and a similar treatment was performed for 27 hr to prepare a negative control group. About 2 hr before completion of the treatment, KaryoMAX (registered trade mark) Colcemid™ Solution in HBSS (Life technologies) (20 μL) was added to the well (final concentration in medium: 0.1 μg/mL) to discontinue the cell cycle, and cells in mitotic metaphase were enriched. At the time of start of the test substance treatment, a part of the cell suspension of the negative control group was separated and the number of the cells was measured using a counting chamber. […] All remaining cell suspension was collected in a centrifuge tube and PBS was added to a total volume of 5 mL, after which the mixture was centrifuged (1000 rpm, 5 min). The supernatant was removed, 75 mM KCl heated to 37° C. was added and a hypotonic treatment was performed for 5 min. To the cell suspension after the hypotonicity was added 1/5 volume of a fixation solution (methanol:glacial acetic acid=3:1), and the cells were semi-fixed and centrifuged (4° C., 1000 rpm, 3 min). After centrifugation, the supernatant was substituted with a fresh fixation solution, and the cells were fixed and centrifuged (4° C., 1000 rpm, 3 min). The operation was repeated 3 times, and the cells were sufficiently fixed and centrifuged again (4° C., 1000 rpm, 3 min). The cells were suspended in a small amount of a fixation solution. […] Chromosomal abnormalities were classified into chromatid break, chromosome break, chromatid exchange, chromosome exchange, and other structural abnormalities and counted. […]

[3] = system: human iPS cell-derived T lymphocyte; assay: In vitro comet assay using human iPS cell-derived T lymphocyte (Example 6); format: cell-based
Method: As human iPS cell-derived T lymphocyte, redifferentiated T lymphocyte derived from human iPS cell line “2” described in Example 1(1) was used. […] A test substance was used at the treatment dose (final concentration in medium) described in Table 9. For the treatment, a test substance was dissolved in PBS at a 100-fold concentration of the final concentration in the medium for addition at 1% (v/v). A test substance was treated according to the process described in (4). […] Each well was washed twice with 1 mL of PBS, redifferentiated T lymphocytes derived from human iPS cell line described in (1) were suspended in Rh-medium at a cell density of 2.0×10^6 cells/mL and added to each well. After about 13 hr of culture, the total amount of the cell suspension was recovered by pipetting. The cell suspension was diluted with Rh-5 medium to a cell density of 2.0×10^5 cells/mL and reseeded in a 24 well plate not coated with the antibody at 1 mL per well, and culture was continued. Treatments with EMS and MAN were performed according to the method described below. That is, after about 24 hr from the reseeding in (3), a solution (10 μL) obtained by dissolving a test substance in PBS at a 100-fold concentration of the final concentration described in Table 9 was further added and the cells were treated for 4 hr. […] On completion of the additional culture, a part of the cell suspension was separated and the number of the cells was measured using a counting chamber. […] The prepared specimen was stained for nucleic acid using SYBR (registered trade mark) Gold, and observed under a fluorescence microscope at 200-fold magnification. 75 nuclei per specimen and 150 nuclei in two specimens per condition were imaged, % tail DNA was calculated using an image analyzer Comet Assay IV, and DNA damaging activity was determined. The % tail DNA was calculated as a percentage of the fluorescence brightness of the tail to the fluorescence brightness of the whole cell nucleus. […]

[4] = system: human iPS cell-derived T lymphocyte; assay: Proliferation ability of human iPS cell-derived T lymphocyte by various proliferation stimulation factors (ATP amount, CellTiter-Glo; Comparative Example 1); format: cell-based
[5] = from known documents (Kirkland 2016; Lasne 1984); cited from earlier work
[6] = from known documents (Kirkland 2016; Lasne 1984; Aardema 2006); cited from earlier work
[7] = from known documents (Kirkland 2016; Lasne 1984); cited from earlier work; remark: listed apart in the source
[8] = system: human peripheral blood-derived mononuclear cells PBMC (feeder cell, 35Gy X-ray); assay: Division kinetics of feeder cells alone under PHA stimulation (comparison control, Comparative Example 2); format: cell-based; conditions: feeder cell only, 5 μg/mL PHA, CytoB 24 hr
[9] = system: human iPS cell-derived T lymphocyte; assay: Division kinetics of human iPS cell-derived T lymphocyte stimulated with PHA (CytoB, CBPI; Comparative Example 2); format: cell-based; conditions: CytoB 24 hr
[10] = iPS cell line 2, 27 hr treatment, doses of Table 7, 300 metaphase cells, Fisher's exact test
[11] = proliferation stimulation for 66 hr
[12] = absence of feeder cells, 3 μg/mL PHA, 426 cells observed
[13] = coculture with feeder cells, 5 μg/mL PHA, 500 cells observed

O=P1(N(CCCl)CCCl)NCCCO1 (centres unmarked) [CPA, cyclophosphamide monohydrate]
judgment result obtained in this Example (in vitro micronucleus test) [1]: positive

CCOS(C)(=O)=O [EMS, ethyl methanesulfonate]
judgment result obtained in this Example (in vitro micronucleus test) [1]: positive | judgment result obtained in this Example (in vitro chromosomal aberration test) [2]: positive | judgment result obtained in this Example (in vitro comet assay) [3]: positive

C[C@H](CCC(=O)O)C[C@H](C)C[C@H](C)C(=O)/C=C(\O)[C@H](C)C[C@H](C)C/C=C/[C@@H](C)[C@@H](O)[C@@H](C)[C@@H](O)C[C@@H]1CC[C@@](C)([C@H]2CC[C@@](C)([C@@H](C)O)O2)O1 [Ionomycin]
proliferation of human iPS cell-derived T lymphocyte by proliferation stimulation [4]: does not proliferate

OC[C@@H](O)[C@@H](O)[C@H](O)[C@H](O)CO [MAN, D(−)-mannitol]
increase in frequency of micronucleus [1]: no statistically significant increase | judgment result obtained in this Example (in vitro micronucleus test) [1]: negative | judgment result expected from known information (in vitro chromosomal aberration test) [5]: negative | judgment result expected from known information (in vitro micronucleus test) [6]: negative | increase in frequency of chromosomal aberration ([2]; all doses (FIG. 12)): no statistically significant increase | judgment result obtained in this Example (in vitro chromosomal aberration test) [2, 10]: negative | increase in % tail DNA ([3]; all doses (FIG. 14)): no statistically significant increase | judgment result obtained in this Example (in vitro comet assay) ([3]; iPS cell line 2, 4 hr treatment, doses of Table 9, % tail DNA, Dunnett's test): negative | judgment result expected from known information (in vitro comet assay) [7]: negative

CO[C@@]12[C@H](COC(N)=O)C3=C(C(=O)C(C)=C(N)C3=O)N1C[C@@H]1N[C@@H]12 [MMC, mitomycin C]
judgment result obtained in this Example (in vitro micronucleus test) [1]: positive | judgment result expected from known information (in vitro chromosomal aberration test) [5]: positive | judgment result obtained in this Example (in vitro chromosomal aberration test) [2, 10]: positive

CCCCCCCCCCCCCC(=O)O[C@@H]1[C@@H](C)[C@@]2(O)[C@@H](C=C(CO)C[C@]3(O)C(=O)C(C)=C[C@@H]23)[C@@H]2C(C)(C)[C@]12OC(C)=O [PMA, phorbol 12-myristate 13-acetate]
luminescent signal (count) [4]: 5784 count | proliferation of human iPS cell-derived T lymphocyte by proliferation stimulation [4]: does not proliferate | proliferation rate [4]: 4.5%

Concanavalin A [Con A]
luminescent signal (count) ([4]; 5 μg/mL Con A, 66 hr, background subtracted): 10064 count | proliferation rate ([4]; 5 μg/mL Con A, 66 hr, percentage of signal at seeding): 7.8% | proliferation of human iPS cell-derived T lymphocyte by proliferation stimulation [4, 11]: does not proliferate

bleomycin sulfate [BLM]
judgment result obtained in this Example (in vitro micronucleus test) [1]: positive

phytohemagglutinin [PHA]
CBPI [8]: 1.03 | binucleated cell number ([8]; 500 cells observed): 11 | mononucleated cell number ([8]; 500 cells observed): 488 | multinucleated cell number ([8]; 500 cells observed): 1 | CBPI ([9]; absence of feeder cells, 3 μg/mL PHA): 1.39 | binucleated cell number [9, 12]: 160 | mononucleated cell number [9, 12]: 262 | multinucleated cell number [9, 12]: 4 | CBPI ([9]; coculture with feeder cells, 5 μg/mL PHA): 1.15 | binucleated cell number [9, 13]: 71 | mononucleated cell number [9, 13]: 426 | multinucleated cell number [9, 13]: 3 | luminescent signal (count) ([4]; 1 μg/mL PHA, 66 hr, background subtracted): 10984 count | proliferation rate ([4]; 1 μg/mL PHA, 66 hr, percentage of signal at seeding): 8.5% | luminescent signal (count) ([4]; 5 μg/mL PHA, 66 hr, background subtracted): 15024 count | proliferation rate ([4]; 5 μg/mL PHA, 66 hr, percentage of signal at seeding): 11.7% | proliferation of human iPS cell-derived T lymphocyte by proliferation stimulation [4, 11]: does not proliferate
